The record followed here is patent publication US6969593B2, “Method for the selective survival or selective growth of a target cell by the use of a conjugate, its use in therapeutics and/or diagnostics and the preparation of said conjugate” (priority 2000, dated 2005).

Common to all, as to type: cell-based, Escherichia coli
Assay [1] concerns TG1-fd Bla I7. In words: Experiments with selective cultures: mixed culture, colonies counted on Tet dishes. Conditions: t = 2 hours; for Bacteria.ml^−1 TG1-fd Bla 17 / % TG1-fd Bla 17: Table 1 results 1; for Bacteria.ml^−1 TG1-fd Bla 17 / Bacteria.ml^−1 TG1-fd Bla I7: complex + or − according to label; for Bacteria.ml^−1 TG1-fd Bla 17: t=0 1.58E+06; for % TG1-fd Bla 17 / % TG1-fd Bla I7: mixture with MM294-pET26b45; for % TG1-fd Bla 17: t=0 20.8%. On the procedure:
(§1) 5 ml (OD=1) of the TG1-fd Bla I7 and the MM294-pET26b45 cultures are centrifuged (4000 RPM, 5 minutes) and twice washed in LB for finally being resolved in 5 ml sterile LB. Two cultures are mixed. 1 ml of this culture is diluted in 9 ml LB (5 erlenmeyers in parallell) and the necessary quantity of the ternary complex or the conjugate is added. During one hour at 37° C. incubation takes place whereafter penicilline is introduced in this culture medium (see table above) and agitation is performed during two hours at 37° C.
(§2) Sampling is made at the start and the finish of the reaction which is diluted and put on Tet or Kan boxes. The incubation takes place all night at 37° C. Calculation of the colonies is made the morning after.
(§3) Mixtures have been made of bacteria TG1-fd Bla […] and MM294-pET26b45. These mixtures have been brought into contact with the ternary complex and incubated during one hour by 37° C. to allow the triple complex to be formed on the bacteria. After this incubation penicillin is added in the culture medium and cultures grown in shaking suspensions for two hours at 37° C. Subsequently, these mixtures were plated on Tet dishes and Kan dishes and incubated overnight at 37° C. The next day, the number of colonies was counted.
(§4) The inventors have also been working on the optimisation of the initial number added in the test of the different bacteria.

For assay [2], the system named is MM294-pET26b45. In words: Experiments with selective cultures: mixed culture, colonies counted on Kan dishes. Conditions: t = 2 hours, complex + or − according to label. The method, then: as §1, §2, §3, §4
Assay [3] has as its system MM294-pET26b45. In words: Spectrophotometric follow up of the cultures (optical density at 600 nm). The following applies: 200 and 800 mg.L^−1 of penicillin; with or without triple complex according to label; 37° C. On the procedure: (§5) Cultures (15 ml, OD=1) of TG1-fd Bla I7 and of MM294-pET26b45 are centrifuged (4000 RPM, 5 minutes). The pellet is washed twice with LB and is resolved in 15 ml sterile LB. In all cases 1 ml of the culture is diluted in 9 ml LB (11 erlenmeyers). Then the necessary quantity of the triple complexes calculated for complete degradation of the penicillin in two hours incubation is added and inbucated one hour at 37° C. Then penicillin is introduced at the final concentrations as indicated in the table below and for two hours at 37° C.
(§6) A sample is made at the start and then every 30 minutes. The optical density is measured of the sample at 600 nm.
(§7) In the next step, the applicant determined the conditions where optimal measurements could be made. With the help of spectrophotometric techniques the evolution in the optical density of different cultures was followed. […]
(§8) These cultures were made in parallel with an increasing concentration of penicillin increasing in the culture medium from 0 mg.L^−1, 50 mg.L^−1, 100 mg.L^−1, 200 mg.L^−1, 400 mg.L^−1 to 800 mg.L^−1. The quantities of the ternary complex were calculated and adapted such that all the penicillin in the medium of culture were hydrolyzed in two hours. […]

Assay [4] concerns TG1-fd Bla I7. Described as above. Conditions: 200 and 800 mg.L^−1 of penicillin; with or without ternary complex according to label; 37° C. On the procedure:
as §5, §6, §7, §8

The structures appear in SMILES notation.

Turning to `CC1(C)S[C@@H]2[C@H](NC(=O)Cc3ccccc3)C(=O)N2[C@H]1C(=O)O` [penicillin G], the results for the “Bacteria.ml^−1 TG1-fd Bla 17” value with TG1-fd Bla I7 [1] ([Pen] 200 mg·L^−1) and with TG1-fd Bla I7 [1] ([Pen] 800 mg·L^−1) were 1 190 ppm and 1 500 ppm, respectively. Further, the “% TG1-fd Bla 17” value in the assay on TG1-fd Bla I7 [1] ([Pen] 200 mg·L^−1) was found to be 15.8%; with TG1-fd Bla I7 [1] ([Pen] 800 mg·L^−1), 8.9%. Moreover, the “Bacteria.ml^−1 TG1-fd Bla I7” value in the assay with TG1-fd Bla I7 [1] (Table 2 results 1, [Pen] 200 mg·L^−1, t=0 2.05E+07) came out at 351.2 ppm; in the assay on TG1-fd Bla I7 [1] (Table 2 results 1, [Pen] 800 mg·L^−1, t=0 2.05E+07), 439.0 ppm; with TG1-fd Bla I7 [1] (Table 2 results 2, [Pen] 200 mg·L^−1, t=0 1.37E+08), 48.2 ppm; in the assay on TG1-fd Bla I7 [1] (Table 2 results 2, [Pen] 800 mg·L^−1, t=0 1.37E+08) it was 2.9 ppm. Also, the “% TG1-fd Bla I7” value was 50.3% in the assay on TG1-fd Bla I7 [1] (Table 2 results 1, [Pen] 200 mg·L^−1, t=0 54.2%); 44.1% in the assay on TG1-fd Bla I7 [1] (Table 2 results 1, [Pen] 800 mg·L^−1, t=0 54.2%); 47.1% in the assay on TG1-fd Bla I7 [1] (Table 2 results 2, [Pen] 200 mg·L^−1, t=0 60.4%); 6.9% in the assay on TG1-fd Bla I7 [1] (Table 2 results 2, [Pen] 800 mg·L^−1, t=0 60.4%). Further, the “Bacteria.ml^−1 MM294-pET26b45” value with MM294-pET26b45 [2] (Table 1 results 1, [Pen] 200 mg·L^−1, t=0 6.00E+06) is listed as 1 667 ppm; in the assay with MM294-pET26b45 [2] (Table 1 results 1, [Pen] 800 mg·L^−1, t=0 6.00E+06), 557 ppm; with MM294-pET26b45 [2] (Table 2 results 1, [Pen] 200 mg·L^−1, t=0 1.73E+07), 410.4 ppm; with MM294-pET26b45 [2] (Table 2 results 1, [Pen] 800 mg·L^−1, t=0 1.73E+07), 659.0 ppm; with MM294-pET26b45 [2] (Table 2 results 2, [Pen] 200 mg·L^−1, t=0 9.00E+07), 82.2 ppm; with MM294-pET26b45 [2] (Table 2 results 2, [Pen] 800 mg·L^−1, t=0 9.00E+07), 60.0 ppm. In addition, the “evolution of optical density of the culture during time” value with MM294-pET26b45 [3] and in the assay on TG1-fd Bla I7 [4] was “tendency to decrease” in each case.
